Target: T1, GABA A α5 (α5β3γ2) (Homo sapiens, UniProt P18507+P31644)
T1 construct: expressed in transfected cells; host or cells: HEK293 (transiently transfected), membranes
Test: [3H]flumazenil competition binding assay, human GABA A α5 receptors in HEK293 cells
Settings: competition for [3H]flumazenil (0.5 nM); HEK293 cells expressing human (transiently transfected) receptors; means of two determinations; read-out: hKi GABA A α5
Protocol: Membrane Preparation and Binding Assay
The affinity of compounds at GABA A receptor subtypes was measured by competition for [3H]flumazenil (85 Ci/mmol; Roche) binding to HEK293 cells expressing rat (stably transfected) or human (transiently transfected) receptors of composition α1β3γ2, α2β3γ2, α3β3γ2 and α5β3γ2.
Cell pellets were suspended in Krebs-tris buffer (4.8 mM KCl, 1.2 mM CaCl2, 1.2 mM MgCl2, 120 mM NaCl, 15 mM Tris; pH 7.5; binding assay buffer), homogenized by polytron for ca. 20 sec on ice and centrifuged for 60 min at 4° C. (50000 g; Sorvall, rotor: SM24=20000 rpm). The cell pellets were resuspended in Krebs-tris buffer and homogenized by polytron for ca. 15 sec on ice. Protein was measured (Bradford method, Bio-Rad) and aliquots of 1 mL were prepared and stored at −80° C.
Radioligand binding assays were carried out in a volume of […] (96-well plates) which contained […] of cell membranes, [3H]flumazenil at a concentration of 1 nM for α1, α2, α3 subunits and 0.5 nM for α5 subunits and the test compound in the range of […]. Nonspecific binding was defined by 10^−5 M diazepam and typically represented less than 5% of the total binding. Assays were incubated to equilibrium for 1 hour at 4° C. and harvested onto GF/C uni-filters (Packard) by filtration using a Packard harvester and washing with ice-cold wash buffer (50 mM Tris; pH 7.5). After drying, filter-retained radioactivity was detected by liquid scintillation counting. Ki values were calculated using Excel-Fit (Microsoft) and are the means of two determinations.
Representative test results, obtained by the above described assay measuring binding affinity to HEK293 cells expressing human (h) receptors, are shown in table 1 below.

| SMILES | Ki [nM] |
| --- | --- |
| O=C(N[C@H]1CCC[C@@H]1O)c1ccc(OCc2c(-c3ccc(F)cc3)noc2CO)nc1 (racemic) [Example 10, 6-[3-(4-Fluoro-phenyl)-5-hydroxymethyl-isoxazol-4-ylmethoxy]-N-((1R,2R)-2-hydroxy-cyclopentyl)-nicotinamide or 6-[3-(4-Fluoro-phenyl)-5-hydroxymethyl-isoxazol-4-ylmethoxy]-N-((1S,2S)-2-hydroxy-cyclopentyl)-nicotinamide] | 1.6 |
| CC1(NC(=O)c2ccc(OCc3c(-c4ccc(F)cc4)noc3CO)nc2)COC1 [Example 17, 6-[3-(4-Fluoro-phenyl)-5-hydroxymethyl-isoxazol-4-ylmethoxy]-N-(3-methyl-oxetan-3-yl)-nicotinamide] | 1.8 |
| CC(C)NC(=O)c1ccc(OCc2c(-c3ccc(F)cc3)noc2CO)nc1 [Example 4, 6-[3-(4-Fluoro-phenyl)-5-hydroxymethyl-isoxazol-4-ylmethoxy]-N-isopropyl-nicotinamide] | 1.1 |
| CC(C)NC(=O)c1ccc(OCc2c(-c3ccc(Cl)cc3)noc2CO)nc1 [Example 19, 6-[3-(4-Chloro-phenyl)-5-hydroxymethyl-isoxazol-4-ylmethoxy]-N-isopropyl-nicotinamide] | 0.4 |
| CC(C)NC(=O)c1ccc(OCc2c(-c3ccccc3)noc2CO)nc1 [Example 1, 6-(5-Hydroxymethyl-3-phenyl-isoxazol-4-ylmethoxy)-N-isopropyl-nicotinamide] | 2.2 |
| O=C(NN1CCOCC1)c1ccc(OCc2c(-c3ccc(F)c(F)c3)noc2CO)nc1 [Example 41, 6-[3-(3,4-Difluoro-phenyl)-5-hydroxymethyl-isoxazol-4-ylmethoxy]-N-morpholin-4-yl-nicotinamide] | 1.1 |
| CN(C)C(=O)c1ccc(OCc2c(-c3ccc(Cl)cc3)noc2CO)nc1 [Example 22, 6-[3-(4-Chloro-phenyl)-5-hydroxymethyl-isoxazol-4-ylmethoxy]-N,N-dimethyl-nicotinamide] | 43.4 |
| CC[C@H](CO)NC(=O)c1ccc(OCc2c(-c3ccc(F)c(F)c3)noc2CO)nc1 [Example 37, 6-[3-(3,4-Difluoro-phenyl)-5-hydroxymethyl-isoxazol-4-ylmethoxy]-N-([R]-1-hydroxymethyl-propyl)-nicotinamide] | 4.4 |
| O=C(NCC(F)(F)F)c1ccc(OCc2c(-c3ccc(F)cc3)noc2CO)nc1 [Example 7, 6-[3-(4-Fluoro-phenyl)-5-hydroxymethyl-isoxazol-4-ylmethoxy]-N-(2,2,2-trifluoro-ethyl)-nicotinamide] | 1.3 |
| O=C(NN1CCCC1)c1ccc(OCc2c(-c3ccc(F)c(F)c3)noc2CO)nc1 [Example 42, 6-[3-(3,4-Difluoro-phenyl)-5-hydroxymethyl-isoxazol-4-ylmethoxy]-N-pyrrolidin-1-yl-nicotinamide] | 4.5 |
| O=C(NN1CCOCC1)c1ccc(OCc2c(-c3ccccn3)noc2CO)nc1 [Example 48, 6-(5-Hydroxymethyl-3-pyridin-2-yl-isoxazol-4-ylmethoxy)-N-morpholin-4-yl-nicotinamide] | 1.7 |
| O=C(c1ccc(OCc2c(-c3ccccn3)noc2CO)nc1)N1CCOCC1 [Example 54, [6-(5-Hydroxymethyl-3-pyridin-2-yl-isoxazol-4-ylmethoxy)-pyridin-3-yl]-morpholin-4-yl-methanone] | 67.2 |
| O=C(NC1CC1)c1ccc(OCc2c(-c3ccc(F)c(F)c3)noc2CO)nc1 [Example 33, N-Cyclopropyl-6-[3-(3,4-difluoro-phenyl)-5-hydroxymethyl-isoxazol-4-ylmethoxy]-nicotinamide] | 3.1 |
| COCCNC(=O)c1ccc(OCc2c(-c3ccc(F)c(F)c3)noc2CO)nc1 [Example 36, 6-[3-(3,4-Difluoro-phenyl)-5-hydroxymethyl-isoxazol-4-ylmethoxy]-N-(2-methoxy-ethyl)-nicotinamide] | 7.7 |
| COCCNC(=O)c1ccc(OCc2c(-c3ccc(F)cc3)noc2CO)nc1 [Example 9, 6-[3-(4-Fluoro-phenyl)-5-hydroxymethyl-isoxazol-4-ylmethoxy]-N-(2-methoxy-ethyl)-nicotinamide] | 4.1 |
| CCCCc1noc(CO)c1COc1ccc(C(=O)N2CCC2)cn1 [Example 53, Azetidin-1-yl-[6-(3-Butyl-5-hydroxymethyl-isoxazol-4-ylmethoxy)-pyridin-3-yl]-methanone] | 51.3 |
| CC(C)NC(=O)c1ccc(OCc2c(-c3ccccn3)noc2CO)nc1 [Example 44, 6-(5-Hydroxymethyl-3-pyridin-2-yl-isoxazol-4-ylmethoxy)-N-isopropyl-nicotinamide] | 0.7 |
| O=C(NC1CCOCC1)c1ccc(OCc2c(-c3ccccn3)noc2CO)nc1 [Example 47, 6-(5-Hydroxymethyl-3-pyridin-2-yl-isoxazol-4-ylmethoxy)-N-(tetrahydropyran-4-yl)-nicotinamide] | 1.1 |
| O=C(N[C@@H]1CCC[C@H]1O)c1ccc(OCc2c(-c3ccc(Cl)cc3)noc2CO)nc1 (single isomer, unassigned) [Example 26, 6-[3-(4-Chloro-phenyl)-5-hydroxymethyl-isoxazol-4-ylmethoxy]-N-((1S,2S)-2-hydroxy-cyclopentyl)-nicotinamide or 6-[3-(4-Chloro-phenyl)-5-hydroxymethyl-isoxazol-4-ylmethoxy]-N-((1R,2R)-2-hydroxy-cyclopentyl)-nicotinamide] | 1.2 |
| CN(C)NC(=O)c1ccc(OCc2c(-c3ccccn3)noc2CO)nc1 [Example 46, 6-(5-Hydroxymethyl-3-pyridin-2-yl-isoxazol-4-ylmethoxy)-nicotinic acid N′,N′-dimethyl-hydrazide] | 2.5 |
| Cn1cc(NC(=O)c2ccc(OCc3c(-c4ccc(Cl)cc4)noc3CO)nc2)cn1 [Example 24, 6-[3-(4-Chloro-phenyl)-5-hydroxymethyl-isoxazol-4-ylmethoxy]-N-(1-methyl-1H-pyrazol-4-yl)-nicotinamide] | 0.7 |
| O=C(NC1CC1)c1ccc(OCc2c(-c3ccc(Cl)cc3)noc2CO)nc1 [Example 20, 6-[3-(4-Chloro-phenyl)-5-hydroxymethyl-isoxazol-4-ylmethoxy]-N-cyclopropyl-nicotinamide] | 1 |
| CC[C@H](CO)NC(=O)c1ccc(OCc2c(-c3ccc(F)cc3)noc2CO)nc1 [Example 14, 6-[3-(4-Fluoro-phenyl)-5-hydroxymethyl-isoxazol-4-ylmethoxy]-N-((R)-1-hydroxymethyl-propyl)-nicotinamide] | 3.5 |
| Cn1cc(NC(=O)c2ccc(OCc3c(-c4ccc(F)c(F)c4)noc3CO)nc2)cn1 [Example 39, 6-[3-(3,4-Difluoro-phenyl)-5-hydroxymethyl-isoxazol-4-ylmethoxy]-N-(1-methyl-1H-pyrazol-4-yl)-nicotinamide] | 2.1 |
| O=C(NCC(F)(F)C(F)(F)F)c1ccc(OCc2c(-c3ccc(F)cc3)noc2CO)nc1 [Example 13, 6-[3-(4-Fluoro-phenyl)-5-hydroxymethyl-isoxazol-4-ylmethoxy]-N-(2,2,3,3,3-pentafluoro-propyl)-nicotinamide] | 3.4 |
| CC(NC(=O)c1ccc(OCc2c(-c3ccc(F)cc3)noc2CO)nc1)C(F)(F)F (centres unmarked) [Example 11, 6-[3-(4-Fluoro-phenyl)-5-hydroxymethyl-isoxazol-4-ylmethoxy]-N-(2,2,2-trifluoro-1-methyl-ethyl)-nicotinamide] | 1.4 |

Reference: patent US8222246B2, “Substituted isoxazoles” (Hoffmann-La Roche Inc., priority 2009, dated 2012)
